Read-outs that look alike come from different tables or passages of the source.
How the values were obtained:
[1] = pKa determination by titration; type: physicochemical; details: titration in Millipore water containing 150 mM NaCl, for nitrocatechols and mimosine one of the pKa values
Experimental: pKa determination: 2 mM of the respective anchoring group was dissolved in Millipore water containing 150 mM NaCl. These solutions were titrated with 0.1 M HCl and NaOH respectively using a SevenMulti pH meter (Mettler Toledo, Switzerland).

[2] = Dispersant binding reversibility: successive filtrations and re-dispersions in HEPES, followed by DLS; type: physicochemical; details: room temperature, anchor named, coupled to PEG(MW 5 kDa)
Experimental: DLS: DLS experiments were run on a Zetasizer Nano ZS (Malvern, UK) in the 173° backscattering mode. Because intensity weighted diameters scale with r^6 and thus large particles are predominant, volume weighted data which scale with r^3 were analyzed using the multiple narrow modes evaluation incorporated into the Malvern software. Temperature dependent DLS experiments have been performed in HEPES at an iron oxide nanoparticle concentration of 200 µg/ml. Solutions were filtered with 200 nm Minisart syringe filters (Sartorius, Germany) prior to DLS analysis. These suspensions were heated from 25 to 90°C in 5°C steps with 10 min equilibration time before the respective DLS experiment. The dispersant binding reversibility was tested on iron oxide nanoparticle HEPES solutions (500 µg/ml) at room temperature. Solutions were repeatedly filtered using Microcon filters with a cut-off of 30 kDa (Millipore, MA, USA) by centrifuging these solutions at […] for 20 min (MiniSpin, Vaudaux Eppendorf, Switzerland). After filtration, the filter cake was re-suspended in HEPES (0.5 ml) and equilibrated for 24 h at room temperature before the next DLS experiment was performed.
The binding reversibility of these dispersants was tested by successive filtrations and re-dispersions of the resulting iron oxide nanoparticle filter cakes in HEPES

| Compound | pKa ([1]; read-out: pKa) | number of filtrations for which nanoparticles remained stable [2] | number of filtrations within which nanoparticles agglomerated [2] | pKa [1] |
| --- | --- | --- | --- | --- |
| NC(Cc1cc(O)c(O)cc1[N+](=O)[O-])C(=O)O (stereo not shown) | ~6.5 | more than 9 filtrations |  |  |
| N[C@@H](Cc1ccc(O)c(O)c1)C(=O)O [DOPA] | > 9 |  | 5-7 filtrations |  |
| NCCc1ccc(O)c(O)c1 [dopamine] | > 9 |  | 0-3 filtrations |  |
| NC(Cn1ccc(=O)c(O)c1)C(=O)O (stereo not shown) [mimosine] | ~6.5 |  | 5-7 filtrations |  |
| NCCc1cc(O)c(O)cc1[N+](=O)[O-] [nitrodopamine] |  |  |  | around 6.5 |
| hydroxydopamine |  |  | 0-3 filtrations | > 9 |
| hydroxypyridine |  |  | 0-3 filtrations |  |
| hydroxypyrone |  |  | 0-3 filtrations |  |
